Laboratory results published in patent US20240261268A1, “METHODS OF SLOWING AN INCREASE IN BRAIN VENTRICULAR VOLUME” (VANDA PHARMACEUTICALS INC., priority 2022, published 2024).

Experiments:
[1] = other S1P receptor modulators, given for comparison; cited from earlier work
[2] = tested on: adult subjects with relapsing MS; test: Phase III study: premature treatment discontinuation and deaths; type: in vivo; details: ponesimod 20 mg, teriflunomide 14 mg
Method: A total of 1468 subjects were screened. Of those, 1133 subjects were randomized (567 to ponesimod 20 mg and 566 to teriflunomide 14 mg) across 162 sites in 28 countries, and 1131 subjects received at least one dose of study drug. The disposition of subjects is summarized in Table 1 and a summary of reasons (primary reason) for treatment discontinuation are shown in Table 2. Overall treatment and study discontinuation were balanced across both treatment arms. A total of 6.5% and 2.5% of the subjects discontinued due to AEs or tolerability related reasons in ponesimod 20 mg and teriflunomide 14 mg, respectively, while 1.9% and 4.3% discontinued due to efficacy related reasons. There were 2 deaths reported during the study—both on teriflunomide 14 mg.

[3] = tested on: adult subjects with relapsing MS; test: 12-lead ECG heart rate and first-dose monitoring on Day 1; type: in vivo, human
Method: The incidence of treatment-emergent heart rate and rhythm (including hypotension) AESIs on Day 1 was higher in the ponesimod 20 mg arm (2.1%) than in the teriflunomide 14 mg arm (0.4%). However, the overall incidence of first dose AESI on Day 1 was low (2.1%) in ponesimod. None of these events were serious nor led to permanent discontinuation of study treatment. Discharge criteria at 4 hours post-dose were met for ca. 99% of subjects. […] ECG HR effect: nadir at 2 hours post-dose (siponimod—3-4 hours, fingolimod—around by 6 hours). Low incidence of low HR outliers (post-dose HR≤40 bpm), all 3 of them with a pre-treatment HR of <55 bpm, which is a known risk factor for post-dose bradycardia with SIP receptor modulators.
The mean heart rate reduction compared to pre-dose reached a maximum for ponesimod 20 mg at 2-hours post dose, −8.7 bpm compared to −1.7 bpm for teriflunomide 14 mg (FIG. 2).

[4] = tested on: adult subjects with relapsing MS; test: MRI-based scaled brain ventricular volume (lateral + 3rd ventricle / ICV); type: in vivo, human; details: p<0.001 vs baseline, ponesimod n=428, teriflunomide n=427
Source text: Efficacy variable/timepoint: The endpoint was increase in ventricular volume up to the end of study (EOS). All available data up to EOS, regardless of treatment discontinuation was included (ITT approach).
Ventricular Volume (VV) data were obtained from MRI images from patients that participated in the OPTIMUM study. Data were obtained from those patients who had MRI imagines at baseline week 60 and week 108. One pre-requisite was to select only those patients who had all images completed.
Ventricular volume was estimated from MRI images collected at baseline (BL), week 60 and week 108 for 428 subjects treated with ponesimod and 427 with teriflunomide. Lesions were identified using T2-weighted and Proton Density (PD) MRIs. Ventricles were segmented using lesion-filled T1 images using with the longitudinal stream in FreeSurfer 7. For each subject, scaled ventricular volume (V) was computed as the sum of lateral and 3rd ventricle volumes divided by the intracranial volume (ICV) and expressed as a percentage. Average V (V) and average change in V (ΔV) from baseline at weeks 60 and 108 were compared across treatment arms. Ventricular volumes were correlated with Multiple Sclerosis Functional Composite (MSFC), Paced Auditory Serial Addition Test (PASAT), Average Timed 25 Foot Walk (T25FW), Average 9-Hole Peg Test (9-HPT), Single Digit Modality Test (SDMT), FSIQ-RMS and Expanded Disability Score (EDSS).

[5] = tested on: adult subjects with relapsing MS; test: Phase III study ponesimod 20 mg vs teriflunomide 14 mg: treatment-emergent adverse events (Safety Set)
Method: A prospective, multicenter, randomized, double-blind, active controlled, parallel-group, phase III, superiority study was conducted.
The treatment period consisted of an up-titration period (from Day 1 to 14) and a maintenance period (Day 15 until EOT).
To reduce the first-dose effect of ponesimod, an up-titration scheme was implemented from Day 1 to Day 14: • Days 1 and 2; 2 mg. • Days 3 and 4; 3 mg. • Days 5 and 6; 4 mg. • Day 7; 5 mg. • Day 8; 6 mg. • Day 9; 7 mg. • Day 10; 8 mg. • Day 11; 9 mg. • Days 12, 13, and 14; 10 mg. • Day 15 until EOT; 20 mg.
The Safety Set (SAF) included all randomized subjects who received at least one dose of study treatment. Subjects were analyzed based on actual treatment taken, not randomized treatment.

[6] = Day 1, ponesimod N=565, teriflunomide N=566, Safety Set
[7] = ponesimod 20 mg N=565, teriflunomide 14 mg N=566, Safety Set
[8] = ponesimod 20 mg, teriflunomide 14 mg
[9] = treatment-emergent, ponesimod 20 mg N=565, teriflunomide 14 mg N=566, Safety Set

CCCCCCCCc1ccc(CCC(N)(CO)CO)cc1 [fingolimod]
ECG HR effect: time of nadir post-dose [1]: ~6 h

CCc1cc(/C(C)=N/OCc2ccc(C3CCCCC3)c(C(F)(F)F)c2)ccc1CN1CC(C(=O)O)C1 [siponimod]
ECG HR effect: time of nadir post-dose [1]: 3 to 4 h

C/C(O)=C(\C#N)C(=O)Nc1ccc(C(F)(F)F)cc1 [teriflunomide, reference compound]
Subjects discontinued due to AEs or tolerability related reasons [2]: 2.5% | Mean heart rate reduction compared to pre-dose (maximum) ([3]; Day 1, 2 hours post dose, 12-lead ECG): −1.7 bpm | Subjects with asymptomatic post-dose HR≤40 bpm ([3]; Day 1, all had pre-treatment HR <55 bpm): none | Average change in scaled ventricular volume from baseline (Δ60V), percentage of ICV ([4]; week 60): 0.065% | Average change in scaled ventricular volume from baseline (Δ108V), percentage of ICV ([4]; week 108): 0.124% | Incidence of treatment-emergent heart rate and rhythm (including hypotension) AESIs on Day 1 ([5]; Day 1, ponesimod 20 mg arm, teriflunomide 14 mg arm): 0.4% | AESI effect on heart rate and rhythm (including hypotension) on Day 1: Subjects with at least one AE [5, 6]: 2(0.4) n (%) | AESI heart rate and rhythm on Day 1, PT: Atrioventricular block first degree [5, 6]: 0 n (%) | AESI heart rate and rhythm on Day 1, PT: Bradycardia [5, 6]: 0 n (%) | AESI heart rate and rhythm on Day 1, PT: Bundle branch block left [5, 6]: 0 n (%) | AESI heart rate and rhythm on Day 1, PT: Bundle branch block right [5, 6]: 0 n (%) | AESI heart rate and rhythm on Day 1, PT: Defect conduction intraventricular [5, 6]: 0 n (%) | AESI heart rate and rhythm on Day 1, PT: Electrocardiogram QT prolonged [5, 6]: 1(0.2) n (%) | AESI heart rate and rhythm on Day 1, PT: Presyncope [5, 6]: 1(0.2) n (%) | AESI heart rate and rhythm on Day 1, PT: Sinus arrhythmia [5, 6]: 0 n (%) | AESI heart rate and rhythm on Day 1, PT: Sinus bradycardia [5, 6]: 0 n (%) | Treatment-emergent AESI: Infection ([5]; only if serious or severe, ponesimod 20 mg N=565, teriflunomide 14 mg N=566, Safety Set): 5(0.9) n (%) | TEAEs leading to premature discontinuation of study drug: Subjects with at least one AE [5, 7]: 34(6.0) n (%) | TEAEs leading to premature discontinuation, SOC: Blood and lymphatic system disorders [5, 7]: 2(0.4) n (%) | TEAEs leading to premature discontinuation, SOC: Cardiac disorders [5, 7]: 2(0.4) n (%) | TEAEs leading to premature discontinuation, SOC: Eye disorders [5, 7]: 0 n (%) | TEAEs leading to premature discontinuation, SOC: Gastrointestinal disorders [5, 7]: 4(0.7) n (%) | TEAEs leading to premature discontinuation, SOC: General disorders and administration site conditions [5, 7]: 2(0.4) n (%) | TEAEs leading to premature discontinuation, SOC: Hepatobiliary disorders [5, 7]: 2(0.4) n (%) | TEAEs leading to premature discontinuation, SOC: Investigations [5, 7]: 10(1.8) n (%) | TEAEs leading to premature discontinuation, SOC: Musculoskeletal and connective tissue disorders [5, 7]: 1(0.2) n (%) | TEAEs leading to premature discontinuation, SOC: Neoplasms benign, malignant and unspecified (incl cysts and polyps) [5, 7]: 1(0.2) n (%) | TEAEs leading to premature discontinuation, SOC: Nervous system disorders [5, 7]: 4(0.7) n (%) | TEAEs leading to premature discontinuation, SOC: Pregnancy, puerperium and perinatal conditions [5, 7]: 3(0.5) n (%) | TEAEs leading to premature discontinuation, SOC: Psychiatric disorders [5, 7]: 1(0.2) n (%) | TEAEs leading to premature discontinuation, SOC: Reproductive system and breast disorders [5, 7]: 1(0.2) n (%) | TEAEs leading to premature discontinuation, SOC: Respiratory, thoracic and mediastinal disorders [5, 7]: 0 n (%) | TEAEs leading to premature discontinuation, SOC: Skin and subcutaneous tissue disorders [5, 7]: 2(0.4) n (%) | TEAEs leading to premature discontinuation, SOC: Social circumstances [5, 7]: 1(0.2) n (%) | TEAEs leading to premature discontinuation, SOC: Surgical and medical procedures [5, 7]: 1(0.2) n (%) | TEAEs leading to premature discontinuation, SOC: Vascular disorders [5, 7]: 0 n (%) | Treatment-emergent AESI: Effect on heart rate and rhythm (including hypotension) [5, 7]: 24(4.2) n (%) | Treatment-emergent AESI: Hepatobiliary disorders/Liver enzyme abnormality [5, 7]: 82(14.5) n (%) | Treatment-emergent AESI: Herpetic infection [5, 7]: 27(4.8) n (%) | Treatment-emergent AESI: Hypertension [5, 7]: 51(9.0) n (%) | Treatment-emergent AESI: Macular edema [5, 7]: 1(0.2) n (%) | Treatment-emergent AESI: Non-skin malignancy [5, 7]: 1(0.2) n (%) | Treatment-emergent AESI: Pulmonary events [5, 7]: 15(2.7) n (%) | Treatment-emergent AESI: Seizure [5, 7]: 1(0.2) n (%) | Treatment-emergent AESI: Skin malignancy [5, 7]: 1(0.2) n (%) | AESI category hepatobiliary disorders/liver enzyme abnormality [5, 8]: 14.5% | AESI category hypertension [5, 8]: 9.0% | AESI category pulmonary events [5, 8]: 2.7% | Proportion of subjects who experienced at least one SAE [5, 8]: 8.1% | Proportion of subjects who experienced at least one TEAE [5, 8]: 88.2% | TEAE: ALT increased [5, 8]: 9.4% | TEAE: headache [5, 8]: 12.7% | TEAE: nasopharyngitis [5, 8]: 16.8% | TEAE: upper respiratory tract infection [5, 8]: 10.4% | TEAEs leading to premature treatment discontinuation [5, 8]: 6.0% | Subjects with at least one AE [5, 9]: 499(88.2) n (%) | Subjects with at least one AE leading to study drug discontinuation [5, 9]: 34(6.0) n (%) | Subjects with at least one Drug-Related AE [5, 9]: 238(42.0) n (%) | Subjects with at least one Fatal AE [5, 9]: 2(0.4) n (%) | Subjects with at least one Serious AE [5, 9]: 46(8.1) n (%) | Subjects with at least one Severe AE [5, 9]: 26(4.6) n (%)
